Assays:
[1] = target: Adenosylhomocysteinase (Oryctolagus cuniculus); experiment: Inhibition of S-adenosyl-homocysteine (AdoHcy)hydrolase from rabbit erythrocytes
[2] = target: Adenosylhomocysteinase (Oryctolagus cuniculus); experiment: as above; remark: listed apart in the source

IC50 [1]	IC50 [2]	Compound
28 µM		Nc1ncnc2c1ncn2C1C(O)C(O)C(CO)C1O (configuration not stated)
	0.04 µM	Nc1ncnc2c1ncn2[C@@H](C=O)O[C@@H](C=O)CO [Adenosine dialdehyde]
